Data from patent US20020051978A1, “Methods and compositions for the identification, assessment, prevention and therapy of human cancers” (priority 2000, published 2002).
Where two headings read alike, the source gives them in different places.

Columns and labels:
[1] = tested on: 60 cancer cell lines (NCI 60 cancer cell line series); assay: NCI-DTP in vitro cancer screen, sulforhodamine B (SRB) growth inhibition, 48 hour exposure; format: cell-based, human; parameters: key to sensitivity class Ovarian OVCAR-8 CL6005 / sensitivity class Ovarian SK-OV-3 CL6011 / sensitivity class Prostate DU-145 CL11003 / sensitivity class NSCLC NCI-H522 CL1003 / sensitivity class Ovarian IGROV1 CL6010 / sensitivity class Ovarian OVCAR-4 CL6002 / sensitivity class Prostate PC-3(I) CL11001 / sensitivity class Renal A498 CL9013 / sensitivity class Renal SN12C CL9008: sensitivity class: 1 = Low, 2 = Medium, 3 = High
In short: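 Values come from the NCI-DTP screen database: -log GI50, the concentration giving 50% growth inhibition, derived from SRB cell-mass dose-response curves. Each line seeded at its own density, treated day 1 at five ten-fold-spaced doses in duplicate wells, stained after 48 h.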

[2] = tested on: 60 cancer cell lines (NCI 60 cancer cell line series); settings: cited from earlier work

SMILES: COc1cc([C@@H]2c3cc4c(cc3[C@@H](O[C@@H]3O[C@@H]5CO[C@@H](C)O[C@H]5[C@H](O)[C@H]3O)[C@H]3COC(=O)[C@H]23)OCO4)cc(OC)c1O [Etoposide]
- classification of cell line as Low(1), Medium(2) or High(3) sensitivity to compound ([1]; Breast BT-549 (CL5013)): 2
- classification of cell line as Low(1), Medium(2) or High(3) sensitivity to compound ([1]; Breast HS-578T CL5006): 3
- classification of cell line as Low(1), Medium(2) or High(3) sensitivity to compound ([1]; Breast MCF7(I) (CL5001)): 2
- classification of cell line as Low(1), Medium(2) or High(3) sensitivity to compound ([1]; Breast MCF7/ADRr (CL5002)): 1
- classification of cell line as Low(1), Medium(2) or High(3) sensitivity to compound ([1]; Breast MDA-MB-231 CL5005): 2
- classification of cell line as Low(1), Medium(2) or High(3) sensitivity to compound ([1]; Breast MDA-MB-435 (CL5011)): 2
- classification of cell line as Low(1), Medium(2) or High(3) sensitivity to compound ([1]; Breast MDA-N CL5012): 3
- classification of cell line as Low(1), Medium(2) or High(3) sensitivity to compound ([1]; Breast T-47D (CL5014)): 3
- classification of cell line as Low(1), Medium(2) or High(3) sensitivity to compound ([1]; CNS SF-268 CL12014): 2
- classification of cell line as Low(1), Medium(2) or High(3) sensitivity to compound ([1]; CNS SF-295 CL12015): 2
- classification of cell line as Low(1), Medium(2) or High(3) sensitivity to compound ([1]; CNS SF-539 CL12016): 2
- classification of cell line as Low(1), Medium(2) or High(3) sensitivity to compound ([1]; CNS SNB-19 (CL12002)): 2
- classification of cell line as Low(1), Medium(2) or High(3) sensitivity to compound ([1]; CNS SNB-75(I) CL12005): 2
- classification of cell line as Low(1), Medium(2) or High(3) sensitivity to compound ([1]; CNS U251(I) CL12009): 2
- classification of cell line as Low(1), Medium(2) or High(3) sensitivity to compound ([1]; Colon COLO-250 CL4010): 1
- classification of cell line as Low(1), Medium(2) or High(3) sensitivity to compound ([1]; Colon HCC-2998 (CL4002)): 2
- classification of cell line as Low(1), Medium(2) or High(3) sensitivity to compound ([1]; Colon HCT-15 CL4015): 2
- classification of cell line as Low(1), Medium(2) or High(3) sensitivity to compound ([1]; Colon HCT-116 (CL4003)): 2
- classification of cell line as Low(1), Medium(2) or High(3) sensitivity to compound ([1]; Colon HT29(I) CL4001): 1
- classification of cell line as Low(1), Medium(2) or High(3) sensitivity to compound ([1]; Colon KM12 (CL4017)): 2
- classification of cell line as Low(1), Medium(2) or High(3) sensitivity to compound ([1]; Colon SW-620 (CL4009)): 2
- classification of cell line as Low(1), Medium(2) or High(3) sensitivity to compound ([1]; Leukemia CCRF-CEM(I) (CL7003)): 2
- classification of cell line as Low(1), Medium(2) or High(3) sensitivity to compound ([1]; Leukemia HL-60(I) (CL7008)): 2
- classification of cell line as Low(1), Medium(2) or High(3) sensitivity to compound ([1]; Leukemia K562(I) CL7005): 2
- classification of cell line as Low(1), Medium(2) or High(3) sensitivity to compound ([1]; Leukemia MOLT-4 (CL7006)): 3
- classification of cell line as Low(1), Medium(2) or High(3) sensitivity to compound ([1]; Leukemia RPMI-8226(I) (CL7010)): 2
- classification of cell line as Low(1), Medium(2) or High(3) sensitivity to compound ([1]; Leukemia SR CL7019): 3
- classification of cell line as Low(1), Medium(2) or High(3) sensitivity to compound ([1]; Melanoma LOX IMVI CL10001): 2
- classification of cell line as Low(1), Medium(2) or High(3) sensitivity to compound ([1]; Melanoma M14 (CL10014)): 3
- classification of cell line as Low(1), Medium(2) or High(3) sensitivity to compound ([1]; Melanoma MALME-3M CL10002): 2
- sensitivity class NSCLC NCI-H23(I) CL1001 ([1]; cell line NSCLC NCI-H23(I), CL1001): 2
- sensitivity class NSCLC NCI-H332M CL1017 ([1]; cell line NSCLC NCI-H332M, CL1017): 1
- sensitivity class NSCLC NCI-H460 CL1021 ([1]; cell line NSCLC NCI-H460, CL1021): 3
- sensitivity class NSCLC NCI-H522 CL1003 ([1]; cell line NSCLC NCI-H522, CL1003): 2
- sensitivity class Ovarian IGROV1 CL6010 ([1]; cell line Ovarian IGROV1, CL6010): 1
- sensitivity class Ovarian OVCAR-3 CL6001 ([1]; cell line Ovarian OVCAR-3, CL6001): 1
- sensitivity class Ovarian OVCAR-4 CL6002 ([1]; cell line Ovarian OVCAR-4, CL6002): 1
- sensitivity class Ovarian OVCAR-5 CL6003 ([1]; cell line Ovarian OVCAR-5, CL6003): 1
- sensitivity class Ovarian OVCAR-8 CL6005 ([1]; cell line Ovarian OVCAR-8, CL6005): 2
- sensitivity class Ovarian SK-OV-3 CL6011 ([1]; cell line Ovarian SK-OV-3, CL6011): 2
- sensitivity class Prostate DU-145 CL11003 ([1]; cell line Prostate DU-145, CL11003): 3
- sensitivity class Prostate PC-3(I) CL11001 ([1]; cell line Prostate PC-3(I), CL11001): 3
- sensitivity class Renal 786-O CL9018 ([1]; cell line Renal 786-O, CL9018): 2
- sensitivity class Renal A498 CL9013 ([1]; cell line Renal A498, CL9013): 2
- sensitivity class Renal ACHN CL9023 ([1]; cell line Renal ACHN, CL9023): 3
- sensitivity class Renal CAKI-1 CL9015 ([1]; cell line Renal CAKI-1, CL9015): 2
- sensitivity class Renal RXF-393 CL9016 ([1]; cell line Renal RXF-393, CL9016): 2
- sensitivity class Renal SN12C CL9008 ([1]; cell line Renal SN12C, CL9008): 2
- sensitivity class Renal TK10 CL9024 ([1]; cell line Renal TK10, CL9024): 2
- sensitivity class Renal UO-31 CL9004 ([1]; cell line Renal UO-31, CL9004): 1
- -Log (GI50) ([2]; Breast BT-549 (CL5013)): 5.6
- -Log (GI50) ([2]; Breast HS-578T CL5006): 6.1
- -Log (GI50) ([2]; Breast MCF7(I) (CL5001)): 5.4
- -Log (GI50) ([2]; Breast MCF7/ADRr (CL5002)): 3.9
- -Log (GI50) ([2]; Breast MDA-MB-231 CL5005): 5.8
- -Log (GI50) ([2]; Breast MDA-MB-435 (CL5011)): 4.5
- -Log (GI50) ([2]; Breast MDA-N CL5012): 6.0
- -Log (GI50) ([2]; Breast T-47D (CL5014)): 6.0
- -Log (GI50) ([2]; CNS SF-268 CL12014): 4.8
- -Log (GI50) ([2]; CNS SF-295 CL12015): 5.0
- -Log (GI50) ([2]; CNS SF-539 CL12016): 5.2
- -Log (GI50) ([2]; CNS SNB-19 (CL12002)): 4.8
- -Log (GI50) ([2]; CNS SNB-75(I) CL12005): 4.8
- -Log (GI50) ([2]; CNS U251(I) CL12009): 5.2
- -Log (GI50) ([2]; Colon COLO-250 CL4010): 4.2
- -Log (GI50) ([2]; Colon HCC-2998 (CL4002)): 4.7
- -Log (GI50) ([2]; Colon HCT-15 CL4015): 4.5
- -Log (GI50) ([2]; Colon HCT-116 (CL4003)): 4.6
- -Log (GI50) ([2]; Colon HT29(I) CL4001): 4.2
- -Log (GI50) ([2]; Colon KM12 (CL4017)): 4.5
- -Log (GI50) ([2]; Colon SW-620 (CL4009)): 4.9
- -Log (GI50) ([2]; Leukemia CCRF-CEM(I) (CL7003)): 5.6
- -Log (GI50) ([2]; Leukemia HL-60(I) (CL7008)): 5.7
- -Log (GI50) ([2]; Leukemia K562(I) CL7005): 4.6
- -Log (GI50) ([2]; Leukemia MOLT-4 (CL7006)): 6.0
- -Log (GI50) ([2]; Leukemia RPMI-8226(I) (CL7010)): 5.4
- -Log (GI50) ([2]; Leukemia SR CL7019): 6.7
- -Log (GI50) ([2]; Melanoma LOX IMVI CL10001): 5.3
- -Log (GI50) ([2]; Melanoma M14 (CL10014)): 6.1
- -Log (GI50) ([2]; Melanoma MALME-3M CL10002): 4.7
- -Log (GI50) ([2]; NCSLC NCI-H522 CL1003): 5.1
- -Log (GI50) ([2]; NSCLC NCI-H23(I) CL1001): 5.1
- -Log (GI50) ([2]; NSCLC NCI-H332M CL1017): 3.8
- -Log (GI50) ([2]; NSCLC NCI-H460 CL1021): 6.0
- -Log (GI50) ([2]; Ovarian IGROV1 CL6010): 4.2
- -Log (GI50) ([2]; Ovarian OVCAR-3 CL6001): 4.2
- -Log (GI50) ([2]; Ovarian OVCAR-4 CL6002): 3.8
- -Log (GI50) ([2]; Ovarian OVCAR-5 CL6003): 4.3
- -Log (GI50) ([2]; Ovarian OVCAR-8 CL6005): 4.8
- -Log (GI50) ([2]; Ovarian SK-OV-3 CL6011): 4.5
- -Log (GI50) ([2]; Prostate DU-145 CL11003): 6.1
- -Log (GI50) ([2]; Prostate PC-3(I) CL11001): 6.2
- -Log (GI50) ([2]; Renal 786-O CL9018): 5.9
- -Log (GI50) ([2]; Renal A498 CL9013): 4.7
- -Log (GI50) ([2]; Renal ACHN CL9023): 6.1
- -Log (GI50) ([2]; Renal CAKI-1 CL9015): 5.2
- -Log (GI50) ([2]; Renal RXF-393 CL9016): 4.8
- -Log (GI50) ([2]; Renal SN12C CL9008): 5.0
- -Log (GI50) ([2]; Renal TK10 CL9024): 5.3
- -Log (GI50) ([2]; Renal UO-31 CL9004): 4.1
